Measured values reported in patent US6624187B1, “Long wave length absorbing bacteriochlorin alkyl ether analogs” (Health Research, Inc., priority 2000, dated 2003).
Entries after “also recorded” stand apart in the source; their conditions may differ.

Key:
mouse foot tissue = experiment: Foot response phototoxicity in mouse foot tissue; assay type: in vivo; conditions: 0.47 mmol/kg I.V.; 135 J/cm^2 at 790 nm; feet illuminated 5 days after injection
Method: Since prolonged cutaneous photosensitivity is a serious side-effect of Photofrin® administration, we tested the phototoxicity of 3-deacetyl-3-(1-heptyloxyethyl) bacteriopurpurin-18-N-hexylimide 7 in mouse foot tissue and the therapeutic drug and light doses. Mice were injected (I.V.) with 0.47 mmol/kg of the drug. Feet were illuminated with 135 J/cm^2 at 790 nm laser light on days 1, 2, 3, 4 and 5 (FIG. 5). Foot response was graded according to the following arbitrary scale: 0, no difference from normal; 0.1, very slight edema; 0.3, slight edema; 0.5, moderate edema; 0.75, large edema; 1, large edema with exudate; 1.2, moderate reddening with slight scaly or crusty appearance; 1.65, slight damage to toes; 1.75, definite damage or slight fusion of toes; 2.0, most toes fused; 2.5, foot almost shapeless with no toes; 3, only stub of foot remaining.

RIF tumor [1] = experiment: In vivo photosensitizing efficacy of bacteriopurpurinimides against RIF tumor; conditions: for Tumor Response (%): Day 7-90
Method: The photosensitizers were dissolved in known quantity of Tween 80 (Aldrich) surfactant and diluted by a factor of 10 with 5% dextrose solution in water to produce a final Tween 80 concentration of 1%. The solution was then filtered through a syringe filter. The concentration of the solution was determined on the basis of the extinction coefficient value of the photosensitizer at the longest wavelength absorption.
Before injecting the drug to the animals, the purity of the material was confirmed by HPLC using a Spectra-Physics system connected to a SP8 700 solvent delivery system and Kratos 757 absorption detector with a fixed wavelength at 405 or 786 nm. Two solvent systems were used in the HPLC analysis: solvent A was prepared by dissolving anhydrous dibasic sodium phosphate (1.0 g) in 400 ml water. To this was added HPLC grade methanol (600 ml). The pH of the solution was adjusted to 7.5 with phosphoric acid; and solvent B was prepared by dissolving anhydrous dibasic sodium phosphate (0.3 g) in 100 ml water, to this was added methanol (900 ml), and the pH was adjusted to 7.5 with phosphoric acid. Solvents A and B were used as gradient mode (0-10 min A, 10-40 min A-B, 40-50 min B, 50-60 min back to A). In some cases solvent B was used as isocratic mode (column reverse phase C-8, flow rate 1.5 ml/min). Prior to irradiation, the fur over grown and surrounding the tumor was removed with electric clippers. Twenty four hours after injecting the drug, the mouse was placed in a custom made aluminum holder. Standard light dose 75 mW/cm^2 for 30 min for a total incident light dose of 135 J/cm^2 from a tunable dye laser tuned to the maximum red absorption peak at 790 nm (in vivo absorption, determined by in vivo reflectance spectroscopy). Laser output was measured with a power meter.
Following light exposure, the mice were kept in groups of 5/cage and supplied with pelleted food and water ad libitum. Tumor size and gross appearance of both tumor and overlying skin was monitored daily for 90 days after photo-illumination unless growth of non-responsive tumor require early sacrifice of those animals.
Bacteriopurpurin-imides 5-7 above have been evaluated for in vivo studies in a mouse tumor model system (RIF tumor). […] The mice were treated with light (790 nm, 135 J/cm^2) after 24 h post injection of the drug (80% tumor cure on day 21 and 60% on day 90). […] The efficacy of the drug was also determined at variable drug and light doses.

RIF tumor [2] = experiment: Tumor uptake and in vivo absorption shift by in vivo reflectance spectroscopy; set-up: species or system mouse
Method: FIGS. 4A and 4B show curves of in vivo light wave absorption of compound 7 in RIF tumor at 24 hours and 5 days post injection.
The tumor uptake and in vivo shift in the long wavelength absorption of the bacteriopurpurin-imide 7 was determined by in vivo reflectance spectroscopy. […] Thus, the tumors were irradiated with light at that particular wavelength. […] In vivo studies with these and other bacteriochlorin analogs at variable treatment conditions are currently in progress.

[3] = In vivo PDT efficacy of bacteriochlorin-N-hexylimide
Source text: Compared to the anhydride ring system, compounds with fused imide ring system in other compounds have shown stability in vivo. For example, among non-porphyrin systems, amonafide, an imide derivative and its structural analogs are reported as anti-neoplastic agents in vitro as well as in vivo with good stability. While we could not know how this might apply to non-porphyrin systems, we investigated the effect of such cyclic structures in the bacteriochlorin system. Initially we followed our own methodology developed for the preparation of purpurin-18-N-alkylimides (U.S. Pat. No. 5,952,366 incorporated herein by reference). Unfortunately, that approach produced a complex reaction mixture. Thus, in a modified approach, bacteriopurpurin-a 2 was first reacted with an alkyl amine (e.g. n-hexyl amine). The formation of the intermediate amide was monitored by spectrophotometry and analytical thin layer chromatography. The intermediate amide analog 3, obtained as a mixture of two isomers, was reacted with diazomethane, and the solvent was removed under vacuum. The residue so obtained was re-dissolved in tetrahydrofuran, and solvent was evaporated. This procedure was repeated several times until the disappearance of the absorption at 765 nm and appearance of a new peak at 822 nm.

[4] = injected dose 0.2 μmol/kg, light 790 nm 175J/cm^2 24 h post injection
[5] = injected dose 0.47 μmol/kg, light 790 nm 135J/cm^2 24 h post injection
[6] = injected dose 1.0 μmol/kg, light 790 nm 135J/cm^2 24 h post injection, C3H mice

Molecule: CCCCCCCOC(C)c1c(C)c2cc3nc(c4c5[nH]c(cc6nc(cc1[nH]2)[C@H](C)[C@H]6CC)c(C)c5C(=O)N(CCCCCC)C4=O)[C@@H](CCC(=O)OCCC)[C@@H]3C (stereo partly shown) [Compound 7, 3-Deacetyl-3-(1-heptyloxyethyl)-bacteriopurpurin-N-hexylimide Propyl Ester]
- foot response phototoxicity (mouse foot tissue): did not show any toxicity
- mice tumor free on day 90 (RIF tumor [1]; drug dose 0.2 μmol/kg, light dose 175 J/cm^2): four out of six
- mice died after the light treatment (RIF tumor [1]; drug dose 1.0 μmol/kg, light 790 nm, 135 J/cm^2): 6/6
- Tumor Response (%) (RIF tumor [1]; injected dose 0.2 μmol/kg, light 790 nm 135J/cm^2 24 h post injection): did not show any PDT efficacy; also recorded: NO RESPONSE
- Tumor Response (%) Day 7 (RIF tumor [1]; [4]): 100%
- Tumor Response (%) Day 21 (RIF tumor [1]; [4]): 70%
- Tumor Response (%) Day 90 (RIF tumor [1]; [4]): 70%
- Tumor Response (%) Day 7 (RIF tumor [1]; [5]): 80%
- Tumor Response (%) Day 21 (RIF tumor [1]; [5]): 80%
- Tumor Response (%) Day 90 (RIF tumor [1]; [5]): 60%
- Tumor Response (%) (RIF tumor [1]; [6]): ALL MICE DIED
- in vivo stability of fused imide ring system (RIF tumor [2]; 5 day post injection): quite stable in vivo
- tumor uptake (RIF tumor [2]; day 5 versus day 1 post injection, RIF tumor): significantly higher tumor uptake at day 5 than day 1

Molecule: C=Cc1c(C)c2cc3nc(c4c5[nH]c(cc6nc(cc1[nH]2)[C@H](C)[C@H]6CC)c(C)c5C(=O)N(CCCCCC)C4=O)[C@@H](CCC(=O)OCCC)[C@@H]3C [Compound 6, 3-Deacetyl-3-vinyl-bacteriopurpurin-18-N-hexylimide Propylester]
- Tumor Response (%) (RIF tumor [1]; [6]): did not produce any PDT efficacy; also recorded: NO RESPONSE

Molecule: CCCCCCN1C(=O)c2c3nc(cc4[nH]c(cc5nc(cc6[nH]c2c(c6C)C1=O)[C@H](CC)[C@H]5C)c(C(C)O)c4C)[C@@H](C)[C@@H]3CCC(=O)OCCC (stereo partly shown) [Compound 5, 3-Deacetyl-3-(1-hydroxyethyl)bacteriopurrurin-18-N-hexylimide]
- Tumor Response (%) (RIF tumor [1]; [6]): did not produce any PDT efficacy; also recorded: NO RESPONSE

Molecule: 3-Acetyl-bacteriopurpurin-18-N-hexylimide [Compound 4]
- in vivo PDT efficacy [3]: did not produce any significant in vivo PDT efficacy
